This is an account of results in patent US20260207563A1, “UREA COMPOUNDS AS ACTIVATORS OF POTASSIUM CHANNELS KV7.2/7.3 USEFUL IN THE TREATMENT OF CNS AND PNS DISORDERS” (ANGELINI PHARMA S.P.A., priority 2022, published 2026).

Type in all cases: cell-based
Experiment [1] deals with T1, homomeric KV7.4 channel (KCNQ4) (Homo sapiens, UniProt P56696).
T1 construct: host or cells: CHO-K1
Nature of the experiment: Automated patch-clamp (Qube) counter-screening assay against KV7.4 channel. The conditions noted are these: CHO-K1 cells expressing KV7.4; class by maximal shift in the Vhalf at 30 μM. The text has this:
Assessment of In Vitro Potency Against KV7.4 Channels
A counter-screening assay was also developed on the Qube against the homomeric KV7.4 channel (KCNQ4, Uniprot ID P56696). The cell line used was a stably transfected CHO-K1 with constitutive KV7.4 expression supplied by Charles River Laboratories.
CHO-K1 cells stably expressing KV7.4 channels were maintained in the following culture media: • Hams F-12 with GlutaMAX™ (Life Technologies 31765027), • 10% Fetal clone 2 serum (Perbio Science SH30066.03), and • 250 μg/ml Geneticin™ selective antibiotic (G418, Invitrogen 1013-027).
(§1) Cell maintenance, preparation, recording conditions and voltage protocols were all identical to those above.
(§2) Analysis of Data for Assessment of Potency
(§3) 10 concentrations of test compounds were applied to individual wells in quadruplicate to assess potency as a 1 in 3 dilution series from the maximal concentration of 30 μM. The average shift in the voltage for half activation (Vhalf) for each concentration was used to generate concentration-response curves fitted with a 4-parameter logistic model to estimate the EC50 from the point of inflection of the curve and the maximal shift in the Vhalf from the top of the curve.
(§4) The lower the EC50 value, the higher the potency of the analyzed compound. The selectivity criteria is assigned on the basis of the maximal shift in the Vhalf at 30 μM. […] In Table 3, ND means that selectivity was not determined.
(Patch clamp records ionic current or voltage across a cell membrane.)

Experiment [2] has as its target T2, heteromeric KV7.2/KV7.3 channels (KCNQ2, KCNQ3) (Homo sapiens, UniProt O43525+O43526).
T2 construct: expressed in transfected cells; host or cells: CHO-K1
Nature of the experiment: Automated patch-clamp (Sophion Qube 384) potency assay against KV7.2/KV7.3 channels. The conditions noted are these: CHO-K1/Kv7.2/Kv7.3 cells; for EC50: EC50 from concentration-response of shift in Vhalf, 10 concentrations up to 30 μM, read-out: Kv7.2/7.3 EC50; for Kv7.2/7.3 ΔV1/2: maximal shift in the Vhalf from the top of the curve. The gist of the method:
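Activator potency: EC50 from 4-parameter logistic fit of mean Vhalf shift across ten 1-in-3 dilutions starting at 30 μM (n=4), with DMSO (typically 0.3%) control. Currents recorded by leak-subtracted whole-cell clamp of stable CHO-K1 KV7.2/KV7.3 cells, held at −80 mV, stepped −100 to +20 mV then 0 mV tails.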

The target in experiment [3] is T3, heteromeric KV7.3/KV7.5 channel (KCNQ3, KCNQ5) (Homo sapiens, UniProt O43525+Q9NR82).
T3 construct: host or cells: HEK293
Nature of the experiment: Automated patch-clamp counter-screening against KV7.3/KV7.5 channel. The conditions noted are these: HEK293 cells expressing Kv7.3/KV7.5; class by maximal shift in the Vhalf at 30 μM. How it is done: Assessment of in vitro potency against KV7.3/KV7.5 channels
Counter-screening was also carried out against the heteromeric KV7.3/KV7.5 channel (KCNQ3, Uniprot ID 043525; KCNQ5, Uniprot ID Q9NR82). The cell line used was a stably transfected HEK293 cell line with constitutive Kv7.3 expression and tetracycline inducible KV7.5 expression supplied by Charles River Laboratories.
Cells were maintained in the following culture media: • DMEM/F-12 with GlutaMAX™ (Life Technologies 31331-028), • 10% Tet Systems FCS (Clonetech 631106), • 500 μg/ml Geneticin™ selective antibiotic (G418, Invitrogen 1013-027), • 5 μg/ml Blasticidin S HCl (InvivoGen ant-bl-5), and • 100 μg/ml Zeocin (InvivoGen: ant-zn-5).
as §1, §2, §3, §4

Regarding `O=C(NCc1ccnc(OCc2ccccc2)c1)NCC(O)C1(C(F)(F)F)CC1` (racemic) [Compound 5, (±)-1-((2-(Benzyloxy)pyridin-4-yl)methyl)-3-(2-hydroxy-2-(1-(trifluoromethyl)cyclopropyl)ethyl)urea], the Kv7.4 selectivity criteria entry in experiment [1] is “A (Selective compounds showed Kv7.4 and/or Kv7.3/7.5 ΔV1/2 equal to or lower than 15 mV (letter A in table 3))”. In addition, in experiment [2], the EC50 worked out at 2.39 µM and the “Kv7.2/7.3 ΔV1/2” value is reported as 21.49 mV. For the same compound, in experiment [3], the Kv7.3/7.5 selectivity criteria result is reported as “A (Selective compounds showed Kv7.4 and/or Kv7.3/7.5 ΔV1/2 equal to or lower than 15 mV (letter A in table 3))”.
For `O=C(NCc1ccnc(OCC(F)(F)F)c1)NC1CCCCC1` [Compound 43, 1-Cyclohexyl-3-((2-(2,2,2-trifluoroethoxy)pyridin-4-yl)methyl)urea], in experiment [1], the Kv7.4 selectivity criteria entry is “B (Non-selective compounds showed Kv7.4 and/or Kv7.3/7.5 ΔV1/2 higher than 15 mV (letter B in table 3))”. For the same compound, in experiment [2], the EC50 was 0.765 µM and the “Kv7.2/7.3 ΔV1/2” value was determined as 53.72 mV. In addition, the Kv7.3/7.5 selectivity criteria result in experiment [3] is “B (Non-selective compounds showed Kv7.4 and/or Kv7.3/7.5 ΔV1/2 higher than 15 mV (letter B in table 3))”.
With `Cc1cc(CNC(=O)NCCC2(C(F)(F)F)CC2)cc(OCC(F)(F)F)n1` [Compound 39, 1-((2-Methyl-6-(2,2,2-trifluoroethoxy)pyridin-4-yl)methyl)-3-(2-(1-(trifluoromethyl)cyclopropyl)ethyl)urea], in experiment [1], the Kv7.4 selectivity criteria entry is listed as “A (Selective compounds showed Kv7.4 and/or Kv7.3/7.5 ΔV1/2 equal to or lower than 15 mV (letter A in table 3))”. For the same compound, in experiment [2], the EC50 was 1.47 µM and the “Kv7.2/7.3 ΔV1/2” value was 21.29 mV. For the same compound, the Kv7.3/7.5 selectivity criteria result in experiment [3] was “A (Selective compounds showed Kv7.4 and/or Kv7.3/7.5 ΔV1/2 equal to or lower than 15 mV (letter A in table 3))”.
As to `O=C(NCCC1(C(F)(F)F)CC1)NCc1ccnc(OCC2CCOCC2)c1` [Compound 12, 1-((2-((Tetrahydro-2H-pyran-4-yl)methoxy)pyridin-4-yl)methyl)-3-(2-(1-(trifluoromethyl)cyclopropyl)ethyl)urea], in experiment [1], the Kv7.4 selectivity criteria entry was “A (Selective compounds showed Kv7.4 and/or Kv7.3/7.5 ΔV1/2 equal to or lower than 15 mV (letter A in table 3))”. Moreover, in experiment [2], the EC50 turned out to be 7.65 µM and the “Kv7.2/7.3 ΔV1/2” value is on record as 13.2 mV. The Kv7.3/7.5 selectivity criteria result in experiment [3] is listed as “A (Selective compounds showed Kv7.4 and/or Kv7.3/7.5 ΔV1/2 equal to or lower than 15 mV (letter A in table 3))”.
Take `COc1cc2c(cc1F)CC[C@H]2NC(=O)NCc1ccnc(OCC(F)(F)F)c1` [Compound 164]: in experiment [1], the Kv7.4 selectivity criteria entry is “A (Selective compounds showed Kv7.4 and/or Kv7.3/7.5 ΔV1/2 equal to or lower than 15 mV (letter A in table 3))”. Moreover, in experiment [2], the EC50 worked out at 1.24 µM and the “Kv7.2/7.3 ΔV1/2” value came out at 25.3 mV. In experiment [3], the Kv7.3/7.5 selectivity criteria entry was “A (Selective compounds showed Kv7.4 and/or Kv7.3/7.5 ΔV1/2 equal to or lower than 15 mV (letter A in table 3))”.
On to `O=C(NCc1ccnc(OCC(F)(F)F)c1)N[C@@H]1CCc2ccccc2C1` [Compound 115], for which the Kv7.4 selectivity criteria result in experiment [1] is reported as “A (Selective compounds showed Kv7.4 and/or Kv7.3/7.5 ΔV1/2 equal to or lower than 15 mV (letter A in table 3))”. In experiment [2], the EC50 worked out at 0.479 µM and the “Kv7.2/7.3 ΔV1/2” value came to 21.89 mV. In experiment [3], the Kv7.3/7.5 selectivity criteria entry is listed as “A (Selective compounds showed Kv7.4 and/or Kv7.3/7.5 ΔV1/2 equal to or lower than 15 mV (letter A in table 3))”.
As for `O=C(NCc1ccnc(C(F)(F)F)c1)N[C@@H]1CCc2ccc(F)cc21` [Compound 92], the Kv7.4 selectivity criteria entry in experiment [1] was “A (Selective compounds showed Kv7.4 and/or Kv7.3/7.5 ΔV1/2 equal to or lower than 15 mV (letter A in table 3))”. Moreover, in experiment [2], the EC50 was determined as 3.95 µM and the “Kv7.2/7.3 ΔV1/2” value is 16.77 mV. The Kv7.3/7.5 selectivity criteria entry in experiment [3] is reported as “A (Selective compounds showed Kv7.4 and/or Kv7.3/7.5 ΔV1/2 equal to or lower than 15 mV (letter A in table 3))”.
With `C[C@H](NC(=O)N[C@@H]1CCc2ccc(F)cc21)c1ccnc(OCC(F)(F)F)n1` [Compound 110], in experiment [1], the Kv7.4 selectivity criteria result is listed as “A (Selective compounds showed Kv7.4 and/or Kv7.3/7.5 ΔV1/2 equal to or lower than 15 mV (letter A in table 3))”. Moreover, in experiment [2], the EC50 stood at 1.92 µM and the “Kv7.2/7.3 ΔV1/2” value stood at 28.73 mV. Further, in experiment [3], the Kv7.3/7.5 selectivity criteria result was “B (Non-selective compounds showed Kv7.4 and/or Kv7.3/7.5 ΔV1/2 higher than 15 mV (letter B in table 3))”.
On to `O=C(NCc1ccnc(OCC(F)(F)F)c1)N[C@H]1CCc2cc(F)c(F)cc21` [Compound 120], for which, in experiment [1], the Kv7.4 selectivity criteria entry is given as “B (Non-selective compounds showed Kv7.4 and/or Kv7.3/7.5 ΔV1/2 higher than 15 mV (letter B in table 3))”. Besides, in experiment [2], the EC50 stood at 0.276 µM and the “Kv7.2/7.3 ΔV1/2” value was 16.57 mV. Besides, the Kv7.3/7.5 selectivity criteria result in experiment [3] is “A (Selective compounds showed Kv7.4 and/or Kv7.3/7.5 ΔV1/2 equal to or lower than 15 mV (letter A in table 3))”.
`O=C(NCCC1(C(F)(F)F)CC1)NCc1ccnc(OCC2(F)COC2)c1` [Compound 24, 1-((2-((3-Fluorooxetan-3-yl)methoxy)pyridin-4-yl)methyl)-3-(2-(1-(trifluoromethyl)cyclopropyl)ethyl)urea]: the Kv7.4 selectivity criteria result in experiment [1] was “A (Selective compounds showed Kv7.4 and/or Kv7.3/7.5 ΔV1/2 equal to or lower than 15 mV (letter A in table 3))”. Moreover, in experiment [2], the EC50 was determined as 11 µM and the “Kv7.2/7.3 ΔV1/2” value was 17.14 mV. The Kv7.3/7.5 selectivity criteria entry in experiment [3] is recorded as “A (Selective compounds showed Kv7.4 and/or Kv7.3/7.5 ΔV1/2 equal to or lower than 15 mV (letter A in table 3))”.
For the compound `O=C(NCc1ccnc(OCC(F)(F)F)c1)N[C@@H]1CCOc2ccccc21` [Compound 130], the Kv7.4 selectivity criteria result in experiment [1] is reported as “B (Non-selective compounds showed Kv7.4 and/or Kv7.3/7.5 ΔV1/2 higher than 15 mV (letter B in table 3))”. In experiment [2], the EC50 amounted to 1.61 µM and the “Kv7.2/7.3 ΔV1/2” value was 40.52 mV. In experiment [3], the Kv7.3/7.5 selectivity criteria entry was “B (Non-selective compounds showed Kv7.4 and/or Kv7.3/7.5 ΔV1/2 higher than 15 mV (letter B in table 3))”.
Take `O=C(NCCC1(C(F)(F)F)CC1)N1CCCC1c1ccnc(OCC(F)(F)F)c1` (stereo not drawn) [Compound 95]: in experiment [1], the Kv7.4 selectivity criteria entry was “A (Selective compounds showed Kv7.4 and/or Kv7.3/7.5 ΔV1/2 equal to or lower than 15 mV (letter A in table 3))”. In experiment [2], the EC50 turned out to be 2.29 µM and the “Kv7.2/7.3 ΔV1/2” value was determined as 21.55 mV. The Kv7.3/7.5 selectivity criteria result in experiment [3] is listed as “A (Selective compounds showed Kv7.4 and/or Kv7.3/7.5 ΔV1/2 equal to or lower than 15 mV (letter A in table 3))”.
With `O=C(NCc1ccnc(OCC(F)(F)F)c1)NC1CCc2sccc21` (stereo not drawn) [Compound 144], in experiment [1], the Kv7.4 selectivity criteria entry is “A (Selective compounds showed Kv7.4 and/or Kv7.3/7.5 ΔV1/2 equal to or lower than 15 mV (letter A in table 3))”. Moreover, in experiment [2], the EC50 turned out to be 2.68 µM and the “Kv7.2/7.3 ΔV1/2” value is on record as 23.26 mV. In addition, in experiment [3], the Kv7.3/7.5 selectivity criteria entry is reported as “A (Selective compounds showed Kv7.4 and/or Kv7.3/7.5 ΔV1/2 equal to or lower than 15 mV (letter A in table 3))”.
Take `O=C(NCc1ccnc(OCC(F)(F)F)c1)N[C@@H]1COc2ccc(F)cc21` [Compound 165]: in experiment [1], the Kv7.4 selectivity criteria entry is “A (Selective compounds showed Kv7.4 and/or Kv7.3/7.5 ΔV1/2 equal to or lower than 15 mV (letter A in table 3))”. In experiment [2], the EC50 came to 2.66 µM and the “Kv7.2/7.3 ΔV1/2” value came to 28.4 mV. For the same compound, the Kv7.3/7.5 selectivity criteria result in experiment [3] was “A (Selective compounds showed Kv7.4 and/or Kv7.3/7.5 ΔV1/2 equal to or lower than 15 mV (letter A in table 3))”.
In the case of `O=C(NCC1CCC(F)(F)CC1)N[C@@H](CO)c1ccnc(OCC(F)(F)F)c1` [Compound 108], the Kv7.4 selectivity criteria result in experiment [1] is “A (Selective compounds showed Kv7.4 and/or Kv7.3/7.5 ΔV1/2 equal to or lower than 15 mV (letter A in table 3))”. In experiment [2], the EC50 worked out at 3.18 µM and the “Kv7.2/7.3 ΔV1/2” value came out at 26.46 mV. Moreover, the Kv7.3/7.5 selectivity criteria entry in experiment [3] is “A (Selective compounds showed Kv7.4 and/or Kv7.3/7.5 ΔV1/2 equal to or lower than 15 mV (letter A in table 3))”.
